Reference: patent publication US9873690B2, “3-indol substituted derivatives, pharmaceutical compositions and methods for use” (Pfizer Inc., priority 2015, dated 2018)

Target: T1, hTDO2 (Homo sapiens, UniProt P48775)
T1 construct: endogenous in cells; host or cells: A172 human brain glioblastoma cells (ATCC CRL-1620)
Experiment: Cellular assay for TDO2 activity determination in A172 cells
Assay type: cell-based
Conditions: human glioblastoma A172 cells naturally expressing hTDO2; overnight incubation; kynurenine by absorbance at 480 nm
Procedure, shortened: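 A172 glioblastoma cells endogenously expressing hTDO2, 1.25×10^4 cells/well, incubated overnight at 37 °C, 5% CO2 in IMDM with 2% FBS and ten compound concentrations. Supernatant kynurenine measured after TCA treatment and Ehrlich's reagent (4-dimethylaminobenzaldehyde) by absorbance at 480 nm against a kynurenine standard curve, then curve-fitted.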

T1 sequence (P48775 whole entry): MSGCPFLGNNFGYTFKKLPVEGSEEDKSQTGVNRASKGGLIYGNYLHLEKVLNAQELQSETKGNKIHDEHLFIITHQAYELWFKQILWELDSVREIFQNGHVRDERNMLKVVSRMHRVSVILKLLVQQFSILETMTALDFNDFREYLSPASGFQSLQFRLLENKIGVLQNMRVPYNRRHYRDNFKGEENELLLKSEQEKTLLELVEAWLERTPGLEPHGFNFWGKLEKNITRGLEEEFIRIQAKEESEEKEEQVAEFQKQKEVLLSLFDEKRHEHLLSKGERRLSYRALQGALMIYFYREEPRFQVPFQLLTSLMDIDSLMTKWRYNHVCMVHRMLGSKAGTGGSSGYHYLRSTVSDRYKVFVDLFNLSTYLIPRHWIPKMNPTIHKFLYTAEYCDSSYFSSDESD

Compound	IC50 [nM]
CC1c2cc(-c3c[nH]c4cc(F)ccc34)ccc2S(=O)(=O)N1CC1CCNCC1 (single isomer, unassigned; (-)) [Example 77, (−) 5-(6-fluoro-1H-indol-3-yl)-3-methyl-2-(piperidin-4-ylmethyl)-2,3-dihydrobenzo[d]isothiazole 1,1-dioxide]	415
CC1c2cc(-c3c[nH]c4cc(F)ccc34)ccc2S(=O)(=O)N1CC1CCN(C)CC1 (single isomer, unassigned; (-)) [Example 79, (−)-5-(6-fluoro-1H-indol-3-yl)-3-methyl-2-((1-methylpiperidin-4-yl)methyl)-2,3-dihydrobenzo[d]isothiazole 1,1-dioxide]	258
CC1c2cc(-c3c[nH]c4cc(F)ccc34)ccc2S(=O)(=O)N1C[C@@]1(C)CCC(=O)N1 (single isomer, unassigned; (-)) [Example 83]	152
CC1c2cc(-c3c[nH]c4cc(F)ccc34)ccc2S(=O)(=O)N1C[C@@]1(C)CCC(=O)N1 (single isomer, unassigned; (-)) [Example 84]	389
CC1c2cc(-c3c[nH]c4cc(F)ccc34)ccc2S(=O)(=O)N1Cc1ncn(C)n1 (single isomer, unassigned; (-)) [Example 85, (−)-5-(6-fluoro-1H-indol-3-yl)-3-methyl-2-((1-methyl-1H-1,2,4-triazol-3-yl)methyl)-2,3-dihydrobenzo[d]isothiazole 1,1-dioxide]	57
CC1c2cc(-c3c[nH]c4cc(F)ccc34)ccc2S(=O)(=O)N1CC1(C)COC(=O)N1 (single isomer, unassigned; (-)) [Example 88, (−)-4-((5-(6-fluoro-1H-indol-3-yl)-3-methyl-1,1-dioxidobenzo[d]isothiazol-2(3H)-yl)methyl)-4-methyloxazolidin-2-one]	68
CC1c2cc(-c3c[nH]c4cc(F)ccc34)ccc2S(=O)(=O)N1C1CNC1 (single isomer, unassigned; (-)) [Example 91, (−)-2-(azetidin-3-yl)-5-(6-fluoro-1H-indol-3-yl)-3-methyl-2,3-dihydrobenzo[d]isothiazole 1,1-dioxide]	260
CNC(=O)C(O)CN1C(C)c2cc(-c3c[nH]c4cc(F)ccc34)ccc2S1(=O)=O (single isomer, unassigned; (-)) [Example 98, (−)-3-(5-(6-fluoro-1H-indol-3-yl)-3-methyl-1,1-dioxidobenzo[d]isothiazol-2(3H)-yl)-2-hydroxy-N-methylpropanamide]	115
CNC(=O)C(O)CN1C(C)c2cc(-c3c[nH]c4cc(F)ccc34)ccc2S1(=O)=O (single isomer, unassigned; (-)) [Example 100, (−)-3-(5-(6-fluoro-1H-indol-3-yl)-3-methyl-1,1-dioxidobenzo[d]isothiazol-2(3H)-yl)-2-hydroxy-N-methylpropanamide]	33
CNC(=O)C(N)CN1C(C)c2cc(-c3c[nH]c4cc(F)ccc34)ccc2S1(=O)=O (single isomer, unassigned; (-)) [Example 103, (−)-2-amino-3-(5-(6-fluoro-1H-indol-3-yl)-3-methyl-1,1-dioxidobenzo[d]isothiazol-2(3H)-yl)-N-methylpropanamide]	413
CNC(=O)C(CN1C(C)c2cc(-c3c[nH]c4cc(F)ccc34)ccc2S1(=O)=O)OC (single isomer, unassigned; (-)) [Example 106, (−)-3-(5-(6-fluoro-1H-indol-3-yl)-3-methyl-1,1-dioxidobenzo[d]isothiazol-2(3H)-yl)-2-methoxy-N-methylpropanamide]	507
CNC(=O)C(CN1C(C)c2cc(-c3c[nH]c4cc(F)ccc34)ccc2S1(=O)=O)OC (single isomer, unassigned; (-)) [Example 108, (−)-3-(5-(6-fluoro-1H-indol-3-yl)-3-methyl-1,1-dioxidobenzo[d]isothiazol-2(3H)-yl)-2-methoxy-N-methylpropanamide]	93
CCOC(=O)NCCN1C(C)c2cc(-c3c[nH]c4cc(F)ccc34)ccc2S1(=O)=O (single isomer, unassigned; (-)) [Example 109, (−)-ethyl (2-(5-(6-fluoro-1H-indol-3-yl)-3-methyl-1,1-dioxidobenzo[d]isothiazol-2(3H)-yl)ethyl)carbamate]	345
CNC(=O)CN1C(C)c2cc(-c3c[nH]c4cc(F)ccc34)ccc2S1(=O)=O (single isomer, unassigned; (-)) [Example 111, (−)-2-(5-(6-fluoro-1H-indol-3-yl)-3-methyl-1,1-dioxidobenzo[d]isothiazol-2(3H)-yl)-N-methylacetamide]	45
CC1c2cc(-c3c[nH]c4cc(F)ccc34)ccc2S(=O)(=O)N1CC(=O)N(C)C (single isomer, unassigned; (-)) [Example 113, (−)-2-(5-(6-fluoro-1H-indol-3-yl)-3-methyl-1,1-dioxidobenzo[d]isothiazol-2(3H)-yl)-N,N-dimethylacetamide]	59
CC1c2cc(-c3c[nH]c4cc(F)ccc34)ccc2S(=O)(=O)N1CC(N)=O (single isomer, unassigned; (-)) [Example 116]	26
CC1c2cc(-c3c[nH]c4cc(F)ccc34)ccc2S(=O)(=O)N1CCN1CCOCC1 (single isomer, unassigned; (-)) [Example 117, (−)-5-(6-fluoro-1H-indol-3-yl)-3-methyl-2-(2-morpholinoethyl)-2,3-dihydrobenzo[d]isothiazole 1,1-dioxide]	308
CC1c2cc(-c3c[nH]c4cc(F)ccc34)ccc2S(=O)(=O)N1C1CCNC(=O)C1 (single isomer, unassigned; (-)) [Example 119, (−)-4-(-5-(6-fluoro-1H-indol-3-yl)-3-methyl-1,1-dioxidobenzo[d]isothiazol-2(3H)-yl)piperidin-2-one]	390
CC1c2cc(-c3c[nH]c4cc(F)ccc34)ccc2S(=O)(=O)N1C1CCNC(=O)C1 (single isomer, unassigned; (-)) [Example 122, (−)-4-(-5-(6-fluoro-1H-indol-3-yl)-3-methyl-1,1-dioxidobenzo[d]isothiazol-2(3H)-yl)piperidin-2-one]	54
CC1c2cc(-c3c[nH]c4cc(F)ccc34)ccc2S(=O)(=O)N1C1CNC(=O)C1 (single isomer, unassigned; (-)) [Example 124, (−)-4-(5-(6-fluoro-1H-indol-3-yl)-3-methyl-1,1-dioxido-benzo[d]isothiazol-2(3H)-yl)pyrrolidin-2-one]	68
CC1c2cc(-c3c[nH]c4cc(F)ccc34)ccc2S(=O)(=O)N1C1CNC(=O)C1 (single isomer, unassigned; (-)) [Example 125, (−)-4-(5-(6-fluoro-1H-indol-3-yl)-3-methyl-1,1-dioxido-benzo[d]isothiazol-2(3H)-yl)pyrrolidin-2-one]	505
CNC(=O)CN1C(CO)c2cc(-c3c[nH]c4cc(F)ccc34)ccc2S1(=O)=O (single isomer, unassigned; (-)) [Example 127, (−)-2-(5-(6-fluoro-1H-indol-3-yl)-3-(hydroxymethyl)-1,1-dioxidobenzo[d]isothiazol-2(3H)-yl)-N-methylacetamide]	87
Cn1cnc(CN2C(CO)c3cc(-c4c[nH]c5cc(F)ccc45)ccc3S2(=O)=O)n1 (single isomer, unassigned; (-)) [Example 129, (−)-5-(6-fluoro-1H-indol-3-yl)-3-(hydroxymethyl)-2-((1-methyl-1H-1,2,4-triazol-3-yl)methyl)-2,3-dihydrobenzo[d]isothiazole 1,1-dioxide]	39
O=S1(=O)c2ccc(-c3c[nH]c4cc(F)ccc34)cc2C(CO)N1CCO (single isomer, unassigned; (-)) [Example 132, (−)-5-(6-fluoro-1H-indol-3-yl)-2-(2-hydroxyethyl)-3-(hydroxymethyl)-2,3-dihydrobenzo[d]isothiazole 1,1-dioxide]	81
CC1c2cc(-c3c[nH]c4cc(F)ccc34)ccc2S(=O)(=O)N1CCc1n[nH]c(=O)o1 (single isomer, unassigned; (-)) [Example 133, (−)-5-(2-(5-(6-fluoro-1H-indol-3-yl)-3-methyl-1,1-dioxidobenzo[d]isothiazol-2(3H)-yl)ethyl)-1,3,4-oxadiazol-2(3H)-one]	383
CS(=O)(=O)NCC1NS(=O)(=O)c2ccc(-c3c[nH]c4cc(F)ccc34)cc21 (single isomer, unassigned; (-)) [Example 139, (−)-N-((5-(6-fluoro-1H-indol-3-yl)-1,1-dioxido-2,3-dihydrobenzo[d]isothiazol-3-yl)methyl)methanesulfonamide]	520
O=S1(=O)c2ccc(-c3c[nH]c4cc(F)ccc34)cc2C(CO)N1CC(O)CO (single isomer, unassigned; (-)) [Example 142, (−)-2-(2,3-dihydroxypropyl)-5-(6-fluoro-1H-indol-3-yl)-3-(hydroxymethyl)-2,3-dihydrobenzo[d]isothiazole 1,1-dioxide]	124
O=S1(=O)c2ccc(-c3c[nH]c4cc(F)ccc34)cc2C(CO)N1CC(O)CO (single isomer, unassigned; (-)) [Example 143, (−)-2-(2,3-dihydroxypropyl)-5-(6-fluoro-1H-indol-3-yl)-3-(hydroxymethyl)-2,3-dihydrobenzo[d]isothiazole 1,1-dioxide]	342
CNC(=O)C(C)N1C(C)c2cc(-c3c[nH]c4cc(F)ccc34)ccc2S1(=O)=O (single isomer, unassigned; (-)) [Example 145, (−)-2-(5-(6-fluoro-1H-indol-3-yl)-3-methyl-1,1-dioxidobenzo[d]isothiazol-2(3H)-yl)-N-methylpropanamide]	92
CNC(=O)C(C)N1C(C)c2cc(-c3c[nH]c4cc(F)ccc34)ccc2S1(=O)=O (single isomer, unassigned; (-)) [Example 148, (−)-2-(5-(6-fluoro-1H-indol-3-yl)-3-methyl-1,1-dioxidobenzo[d]isothiazol-2(3H)-yl)-N-methylpropanamide]	265
